As a reminder, the IC50 is the point on the concentration scale where inhibition reaches its midpoint.

Holding throughout (assay type): functional, cell-based
Assay [1] deals with MCF7. Description: Cytotoxicity against human MCF7 cells after 48 hrs by MTT assay. The settings on record: MCF7, 48 h.
Assay [2] has as its system MCF7. As to the kind of experiment: Cell cycle arrest in human MCF7 cells.
In assay [3] the test system is MCF7. Description: Cytotoxicity against human MCF7 cells at 100 uM after 48 hrs by MTT assay. In general terms: Tetrazolium assays rely on reduction of a dye to a coloured formazan, in cell work by metabolically active cells.
Another assay deals with A-431. As to the kind of experiment: Cytotoxicity against human A431 cells at 100 uM after 48 hrs by MTT assay.
A further assay concerns T47D. Description: Cytotoxicity against human T47D cells at 100 uM after 48 hrs by MTT assay.
A short description of assay [4]: Cell cycle arrest in mouse tsFT210 cells assessed as accumulation of cells at G2/M phase.

Each structure is given as a SMILES string. Calls of active or inactive are those of the source. The rule behind the calls is not given here.

Turning to `CCOC(=O)[C@@]1(c2ccccc2N)SC[C@H]2C(=O)N3CCC[C@H]3C(=O)N21`, in the assay with MCF7 [1], the IC50 worked out at 14800 nM.

For the molecule `O=C1[C@@H]2CS[C@@]3(C(=O)Nc4ccccc43)N2C(=O)[C@@H]2CCCN12`, the outcome with MCF7 [2], with MCF7 [3], in the assay on A-431 and with T47D was inactive.

Consider `Cc1ccc2c(c1)[C@]1(SC[C@H]3C(=O)N4CCC[C@H]4C(=O)N31)C(=O)N2`, for which the outcome in the assay on MCF7 [2], in the assay with MCF7 [3], in the assay on A-431 and with T47D was inactive.

`CCOC(=O)[C@@]1(c2cc(C)ccc2N)SC[C@H]2C(=O)N3CCC[C@H]3C(=O)N21` displayed an IC50 in the assay with MCF7 [1] of 1600 nM.

In the case of `O=C1[C@@H]2CS[C@]3(C(=O)Nc4ccc(Br)cc43)N2C(=O)[C@@H]2CCCN12`, the result with MCF7 [2], in the assay on MCF7 [3], with A-431 and with T47D was inactive.

In the case of `CN1C(=O)[C@@]2(SC[C@H]3C(=O)N4CCC[C@H]4C(=O)N32)c2ccccc21`, the outcome in the assay on MCF7 [2], in the assay on MCF7 [3], in the assay on A-431 and in the assay on T47D was inactive.

Turning to `O=C1[C@@H]2CS[C@@]3(C(=O)Nc4ccc(Br)cc43)N2C(=O)[C@@H]2CCCN12`, the result in the assay with MCF7 [2], in the assay with MCF7 [3], with A-431 and with T47D was inactive.

For `O=C1[C@@H]2CS[C@]3(C(=O)Nc4ccccc43)N2C(=O)[C@@H]2CCCN12`, the outcome in the assay on MCF7 [2], in the assay on MCF7 [3], in the assay with A-431 and with T47D was inactive.

Molecule `CCOC(=O)[C@@]1(c2cc(Br)ccc2N)SC[C@H]2C(=O)N3CCC[C@H]3C(=O)N21` gave an IC50 in the assay with MCF7 [1] of 2200 nM.

With `CN1C(=O)[C@]2(SC[C@H]3C(=O)N4CCC[C@H]4C(=O)N32)c2ccccc21`, the outcome in the assay on MCF7 [2], in the assay with MCF7 [3], in the assay on A-431 and in the assay with T47D was inactive.

For `COc1ccc2c(c1)NC(=O)[C@@]21C[C@H]2C(=O)N3CCC[C@H]3C(=O)N2[C@H]1C=C(C)C` [SPIROTRYPROSTATIN A], in assay [4], the concentration for half-maximal inhibition (IC50) came to 198 µM.

Take `Cc1ccc2c(c1)[C@@]1(SC[C@H]3C(=O)N4CCC[C@H]4C(=O)N31)C(=O)N2`: the result in the assay with MCF7 [2], in the assay with MCF7 [3], in the assay on A-431 and with T47D was inactive.

The record behind these values is ChEMBL document CHEMBL1165964, “Design and synthesis of spirotryprostatin-inspired diketopiperazine systems from prolyl spirooxoindolethiazolidine derivatives” (Bioorg Med Chem, 2010).
